Test results reported in the supplement of paper PMC8882468.
± gives the standard deviation of the averaged measurements.

These compounds were tested on HCI-011.E2 (organoid from an ER-positive breast cancer xenograft) (assay: CTG-3D luminescence at 96 h relative to day-0 seeding control (ratio to day 0); higher = more growth / less cytotoxicity; PDxO 3D drug screen, 96 h, CTG-3D normalised to day-0 seeding control.). Details: 12.5 pM; days in culture: 74.

First: Cc1cc(Nc2ncc(Cl)c(Nc3ccccc3S(=O)(=O)C(C)C)n2)c(OC(C)C)cc1C1CCNCC1 [ceritinib]
Second: Cc1cc(Nc2ncnc3ccc(NC4=NC(C)(C)CO4)cc23)ccc1Oc1ccn2ncnc2c1 [tucatinib]
The “CTG-3D luminescence at 96 h” value of the first is lower: 1.46 for the first, 2.22 for the second.

Compared with `CS(=O)(=O)c1ccc(C(=O)Nc2ccc(Cl)c(-c3ccccn3)c2)c(Cl)c1` [vismodegib], `NC(=O)c1cccc2cn(-c3ccc([C@@H]4CCCNC4)cc3)nc12` [niraparib] is lower in “CTG-3D luminescence at 96 h” value: 2.31 for the first, 1.93 for the second.

`CCN(c1cc(C#CCN2CCOCC2)cc(C(=O)NCc2c(C)cc(C)[nH]c2=O)c1C)[C@H]1CC[C@H](N(C)CCOC)CC1` was tested, and the “CTG-3D luminescence at 96 h” value was 1.76.

Same assay, conditions: 0.00025 µM

`NC1(C(=O)N[C@@H](CCO)c2ccc(Cl)cc2)CCN(c2nc[nH]c3nccc2-3)CC1` [capivasertib] and `C[C@H](NC(=O)CCC(F)(F)F)C(=O)N[C@@H]1C(=O)N(CCO)c2ncccc2-c2ccccc21` [crenigacestat] are within error of each other in “CTG-3D luminescence at 96 h” value: 1.67 ± 0.2 for the first, 2.05 ± 0.4 for the second.

First: CC(C)n1nc(-c2ccc3oc(N)nc3c2)c2c(N)ncnc21 [sapanisertib]
Second: Cc1cc(Nc2ncnc3ccc(NC4=NC(C)(C)CO4)cc23)ccc1Oc1ccn2ncnc2c1 [tucatinib]
The “CTG-3D luminescence at 96 h” value of the first is higher: 1.79 ± 0.046 for the first, 1.59 ± 0.043 for the second.

`O=C(c1ccc(F)c(F)c1Nc1ccc(I)cc1F)N1CC(O)([C@@H]2CCCCN2)C1` [cobimetinib] and `NC(=O)c1cccc2cn(-c3ccc([C@@H]4CCCNC4)cc3)nc12` [niraparib] are within error of each other in “CTG-3D luminescence at 96 h” value: 1.69 ± 0.14 for the first, 1.59 ± 0.46 for the second.

`Cc1cc(Nc2ncc(Cl)c(Nc3ccccc3S(=O)(=O)C(C)C)n2)c(OC(C)C)cc1C1CCNCC1` [ceritinib] and `CS(=O)(=O)c1ccc(C(=O)Nc2ccc(Cl)c(-c3ccccn3)c2)c(Cl)c1` [vismodegib] are the same in “CTG-3D luminescence at 96 h” value: 1.409 ± 0.0053 for the first, 1.41 ± 0.3 for the second.

For `CCN(c1cc(C#CCN2CCOCC2)cc(C(=O)NCc2c(C)cc(C)[nH]c2=O)c1C)[C@H]1CC[C@H](N(C)CCOC)CC1`, the “CTG-3D luminescence at 96 h” value was 1.39 ± 0.11.

Same assay, conditions: 0.00025 µM; days in culture: 74

First: NC1(C(=O)N[C@@H](CCO)c2ccc(Cl)cc2)CCN(c2nc[nH]c3nccc2-3)CC1 [capivasertib]
Second: C[C@H](NC(=O)CCC(F)(F)F)C(=O)N[C@@H]1C(=O)N(CCO)c2ncccc2-c2ccccc21 [crenigacestat]
The “CTG-3D luminescence at 96 h” value of the first is lower: 2.07 for the first, 2.44 for the second.

Going from `CC(C)n1nc(-c2ccc3oc(N)nc3c2)c2c(N)ncnc21` [sapanisertib] to `Cc1cc(Nc2ncnc3ccc(NC4=NC(C)(C)CO4)cc23)ccc1Oc1ccn2ncnc2c1` [tucatinib], the “CTG-3D luminescence at 96 h” value rises from 2.86 to 2.98.

Compared with `O=C(c1ccc(F)c(F)c1Nc1ccc(I)cc1F)N1CC(O)([C@@H]2CCCCN2)C1` [cobimetinib], `NC(=O)c1cccc2cn(-c3ccc([C@@H]4CCCNC4)cc3)nc12` [niraparib] is lower in “CTG-3D luminescence at 96 h” value: 2.66 for the first, 2.01 for the second.

Compared with `Cc1cc(Nc2ncc(Cl)c(Nc3ccccc3S(=O)(=O)C(C)C)n2)c(OC(C)C)cc1C1CCNCC1` [ceritinib], `CS(=O)(=O)c1ccc(C(=O)Nc2ccc(Cl)c(-c3ccccn3)c2)c(Cl)c1` [vismodegib] is higher in “CTG-3D luminescence at 96 h” value: 1.59 for the first, 1.93 for the second.

`CCN(c1cc(C#CCN2CCOCC2)cc(C(=O)NCc2c(C)cc(C)[nH]c2=O)c1C)[C@H]1CC[C@H](N(C)CCOC)CC1` was tested, and the “CTG-3D luminescence at 96 h” value was 2.24.

Same assay, conditions: 0.005 µM

`NC1(C(=O)N[C@@H](CCO)c2ccc(Cl)cc2)CCN(c2nc[nH]c3nccc2-3)CC1` [capivasertib] and `C[C@H](NC(=O)CCC(F)(F)F)C(=O)N[C@@H]1C(=O)N(CCO)c2ncccc2-c2ccccc21` [crenigacestat] are within error of each other in “CTG-3D luminescence at 96 h” value: 1.43 ± 0.48 for the first, 1.54 ± 0.61 for the second.

First: CC(C)n1nc(-c2ccc3oc(N)nc3c2)c2c(N)ncnc21 [sapanisertib]
Second: Cc1cc(Nc2ncnc3ccc(NC4=NC(C)(C)CO4)cc23)ccc1Oc1ccn2ncnc2c1 [tucatinib]
The “CTG-3D luminescence at 96 h” value of the first is lower: 1.06 ± 0.06 for the first, 1.4 ± 0.23 for the second.

`O=C(c1ccc(F)c(F)c1Nc1ccc(I)cc1F)N1CC(O)([C@@H]2CCCCN2)C1` [cobimetinib] and `NC(=O)c1cccc2cn(-c3ccc([C@@H]4CCCNC4)cc3)nc12` [niraparib] are within error of each other in “CTG-3D luminescence at 96 h” value: 1.54 ± 0.1 for the first, 1.3 ± 0.5 for the second.

`Cc1cc(Nc2ncc(Cl)c(Nc3ccccc3S(=O)(=O)C(C)C)n2)c(OC(C)C)cc1C1CCNCC1` [ceritinib] and `CS(=O)(=O)c1ccc(C(=O)Nc2ccc(Cl)c(-c3ccccn3)c2)c(Cl)c1` [vismodegib] are within error of each other in “CTG-3D luminescence at 96 h” value: 1.37 ± 0.39 for the first, 1.58 ± 0.23 for the second.

With `CCN(c1cc(C#CCN2CCOCC2)cc(C(=O)NCc2c(C)cc(C)[nH]c2=O)c1C)[C@H]1CC[C@H](N(C)CCOC)CC1` the “CTG-3D luminescence at 96 h” value was 1.48 ± 0.29.

Same assay, conditions: 0.005 µM; days in culture: 74

First: NC1(C(=O)N[C@@H](CCO)c2ccc(Cl)cc2)CCN(c2nc[nH]c3nccc2-3)CC1 [capivasertib]
Second: O=C(c1ccc(F)c(F)c1Nc1ccc(I)cc1F)N1CC(O)([C@@H]2CCCCN2)C1 [cobimetinib]
The “CTG-3D luminescence at 96 h” value of the first is lower: 2.01 for the first, 2.33 for the second.

With `CC(C)n1nc(-c2ccc3oc(N)nc3c2)c2c(N)ncnc21` [sapanisertib] the “CTG-3D luminescence at 96 h” value was 1.28.
